In one series the test system is Acinetobacter baumannii. As to the kind of experiment: Inhibition of biofilm formation in Acinetobacter baumannii at 100 uM incubated for 24 hrs by crystal violet staining based microtiter plate method. Format: functional.
The subject of series [1] is Staphylococcus aureus. As to the kind of experiment: Inhibition of biofilm formation in methicillin-resistant Staphylococcus aureus ATCC 43300 incubated for 24 hrs by crystal violet staining based microtiter plate method. As to conditions: ATCC 43300, 24 h. The format is functional, organism-based.
The test system of series [2] is Staphylococcus aureus. As to the kind of experiment: Inhibition of biofilm formation in methicillin-resistant Staphylococcus aureus ATCC 43300 at 100 uM incubated for 24 hrs by crystal violet staining based microtiter plate method. The format is functional.
Series [3] relates to CCD-18Co. As to the kind of experiment: Cytotoxicity against human CCD-18Co cells assessed as reduction in cell viability at 50 uM measured after 1 days by MTT assay relative to control. The format is cell-based. The note with it: 24 h, time 1 day.
Series [4] relates to CCD-18Co. As to the kind of experiment: Cytotoxicity against human CCD-18Co cells assessed as reduction in cell viability at 25 uM measured after 1 days by MTT assay relative to control. The note with it: 24 h, time 1 day. The format is cell-based. In general terms: Formazan colour is commonly taken as a measure of viable cells.
In series [5] the test system is CCD-18Co. As to the kind of experiment: Cytotoxicity against human CCD-18Co cells assessed as reduction in cell viability at 12.5 uM measured after 1 days by MTT assay relative to control. Format: cell-based. As to conditions: 24 h, time 1 day.

The results in this text go back to ChEMBL document CHEMBL4665809, “Synthesis and biofilm inhibition studies of 2-(2-amino-6-arylpyrimidin-4-yl)quinazolin-4(3H)-ones” (Bioorg Med Chem Lett, 2020).

In general, inhibition refers to the relative decrease from the control value, in per cent. A high value points to strong suppression. Usually IC50 stands for the concentration needed to halve the response being measured. A low value points to greater potency in that assay. Turning to `Nc1nc(-c2ccc(OCc3ccccc3)cc2)cc(-c2nc3ccccc3c(=O)[nH]2)n1`, the inhibition at 100 µM in the series on Acinetobacter baumannii is less than 25%; in the series with Staphylococcus aureus [2], more than 50%. The compound further displayed an IC50 with Staphylococcus aureus [1] of 37.3 µM.

`COc1cc(-c2cc(-c3nc4ccccc4c(=O)[nH]3)nc(N)n2)cc(OC)c1OC` had an inhibition at 100 µM in the series on Acinetobacter baumannii of less than 25%.

As for `Nc1nc(-c2ccc(Cl)cc2)cc(-c2nc3ccccc3c(=O)[nH]2)n1`, the inhibition at 100 µM with Acinetobacter baumannii is less than 25%; with Staphylococcus aureus [2] it was less than 50%.

Take `COc1cc(OC)c(-c2cc(-c3nc4ccccc4c(=O)[nH]3)nc(N)n2)c(OC)c1`: the Activity result in the series on CCD-18Co [3], in the series on CCD-18Co [4] and in the series on CCD-18Co [5] was “Non-Toxic” throughout. In addition, the figures for the inhibition at 100 µM with Acinetobacter baumannii and in the series on Staphylococcus aureus [2] were less than 25% and more than 50%, respectively. In the series with Staphylococcus aureus [1], this compound displayed an IC50 of 21.2 µM.

Take `Nc1nc(-c2cccc(Br)c2)cc(-c2nc3ccccc3c(=O)[nH]2)n1`: the Activity entry in the series with CCD-18Co [3] and with CCD-18Co [5] was “Toxic” each time. In addition, the inhibition at 100 µM is less than 25% in the series with Acinetobacter baumannii and more than 50% in the series on Staphylococcus aureus [2]. This compound showed a half-maximal inhibitory concentration (IC50) with Staphylococcus aureus [1] of 20.7 µM.

Turning to `COc1cc(OC)cc(-c2cc(-c3nc4ccccc4c(=O)[nH]3)nc(N)n2)c1`, the inhibition at 100 µM in the series on Acinetobacter baumannii is less than 25%; in the series on Staphylococcus aureus [2] it was more than 50%. Besides, half-maximal inhibition in the series on Staphylococcus aureus [1] (IC50) was put at 50.5 µM.

In the case of `Nc1nc(-c2ccncc2)cc(-c2nc3ccccc3c(=O)[nH]2)n1`, the inhibition at 100 µM with Acinetobacter baumannii was less than 25%; in the series on Staphylococcus aureus [2] it was less than 50%.

With `Nc1nc(-c2nc3ccccc3c(=O)[nH]2)cc(-c2ccc(Cl)cc2Cl)n1`, the inhibition at 100 µM in the series on Acinetobacter baumannii is less than 25%; with Staphylococcus aureus [2], more than 50%. Besides, the IC50 in the series with Staphylococcus aureus [1] turned out to be 42.7 µM.

For the compound `COc1ccc(-c2cc(-c3nc4ccccc4c(=O)[nH]3)nc(N)n2)c(OC)c1`, the inhibition at 100 µM in the series with Acinetobacter baumannii is less than 25%; with Staphylococcus aureus [2] it was more than 50%. In the series with Staphylococcus aureus [1], inhibition was half-maximal at 38.4 µM (IC50).

In the series with Acinetobacter baumannii, `Nc1nc(-c2cccc(OCc3ccccc3)c2)cc(-c2nc3ccccc3c(=O)[nH]2)n1` returned an inhibition at 100 µM of less than 25%.

For the compound `Nc1nc(-c2ccc(C(F)(F)F)cc2)cc(-c2nc3ccccc3c(=O)[nH]2)n1`, the results for the inhibition at 100 µM in the series on Acinetobacter baumannii and in the series with Staphylococcus aureus [2] were less than 25% and more than 50%, respectively. The IC50 with Staphylococcus aureus [1] was found to be 86.5 µM.

As to `COc1cccc(-c2cc(-c3nc4ccccc4c(=O)[nH]3)nc(N)n2)c1`, the figures for the inhibition at 100 µM in the series on Acinetobacter baumannii and with Staphylococcus aureus [2] were less than 25% and more than 50%, respectively. It took 84.8 µM to reach half-maximal inhibition in the series with Staphylococcus aureus [1] (IC50).

For `Nc1nc(-c2ccc(Br)cc2)cc(-c2nc3ccccc3c(=O)[nH]2)n1`, the inhibition at 100 µM with Acinetobacter baumannii is less than 25%; with Staphylococcus aureus [2], more than 50%. This compound also registered an IC50 in the series on Staphylococcus aureus [1] of 47.3 µM.

As for `Nc1nc(-c2nc3ccccc3c(=O)[nH]2)cc(-c2ccco2)n1`, the inhibition at 100 µM is less than 25% with Acinetobacter baumannii and more than 50% with Staphylococcus aureus [2]. Further, the IC50 in the series with Staphylococcus aureus [1] was 56.9 µM.

As for `Nc1nc(-c2ccccc2)cc(-c2nc3ccccc3c(=O)[nH]2)n1`, the inhibition at 100 µM was less than 25% in the series on Acinetobacter baumannii and more than 50% with Staphylococcus aureus [2]. The compound further had an IC50 in the series on Staphylococcus aureus [1] of 34.4 µM.

Compound `Cc1ccc(-c2cc(-c3nc4ccccc4c(=O)[nH]3)nc(N)n2)cc1` showed an inhibition at 100 µM with Acinetobacter baumannii of less than 25%.

With `COc1ccc(-c2cc(-c3nc4ccccc4c(=O)[nH]3)nc(N)n2)cc1OC`, the inhibition at 100 µM in the series with Acinetobacter baumannii is less than 25%.

`Nc1nc(-c2ccc(F)cc2)cc(-c2nc3ccccc3c(=O)[nH]2)n1`: the inhibition at 100 µM with Acinetobacter baumannii was less than 25%; in the series on Staphylococcus aureus [2], less than 50%.

Regarding `Nc1nc(-c2nc3ccccc3c(=O)[nH]2)cc(-c2cccs2)n1`, the inhibition at 100 µM is less than 25% in the series on Acinetobacter baumannii and less than 50% in the series with Staphylococcus aureus [2]. In the series with Staphylococcus aureus [1], this compound gave an IC50 of 71 µM.

For the compound `Nc1nc(-c2nc3ccccc3c(=O)[nH]2)cc(-c2ccccc2Cl)n1`, the figures for the inhibition at 100 µM with Acinetobacter baumannii and in the series with Staphylococcus aureus [2] were less than 25% and more than 50%, respectively. Further, in the series on Staphylococcus aureus [1], the midpoint of inhibition, the IC50, lay at 56.2 µM.

The compound `Nc1nc(-c2nc3ccccc3c(=O)[nH]2)cc(-c2cccc3ccccc23)n1` came in with an inhibition at 100 µM in the series on Acinetobacter baumannii of less than 25%.

For the compound `CSc1ccc(-c2cc(-c3nc4ccccc4c(=O)[nH]3)nc(N)n2)cc1`, the inhibition at 100 µM in the series with Acinetobacter baumannii is less than 25%; in the series on Staphylococcus aureus [2] it was more than 50%. In the series on Staphylococcus aureus [1], this compound showed an IC50 of 22.4 µM.
